Laboratory results taken from patent publication US12023399B2, “Cleansing composition with pyrrolidone carboxylic acid” (The Procter & Gamble Company, priority 2021, dated 2024).

Test system: Staphylococcus aureus (ATCC #6538)
Experiment: S. aureus growth on pH adjusted TSA plates
Assay type: cell-based
Conditions: TSA plate pH 4.51 supplemented with 0.03% PCA, ~48 hrs at 33° C.; pH 5.99 plate without PCA shows colonies
Method: The Staphylococcus aureus (ATCC #6538) bacteria cultures used herein can be created from commercially available Trypticase Soy Agar (TSA) plates that are streaked and incubated 17-20 hours at 35° C.±2° C. The resulting bacteria are grown in a conventional saline buffer solution with the optical density adjusted to deliver 10^9 to 10^10 cfu/mL. A sample of the bulk culture can be diluted 1:1,000,000 in saline buffer. 100 ul of the dilute bacteria culture is streak plated onto a TSA plate that is pH adjusted to pH 5.99 or onto a TSA plate that is pH adjusted to pH 4.51 and supplemented with 0.03% PCA. Plates are incubated ˜48 hrs at 33° C.±2° C. and photographed for growth as shown in FIGS. 2A (with pH 5.99) and 2B (with pH 4.5 and 0.03% PCA).

Compound: O=C1CC[C@@H](C(=O)O)N1 [PCA, pyrrolidone carboxylic acid]
- S. aureus colonies after incubation: no colonies are observed
